Literature values as cited in patent US20230338402A1, “TREATMENT REGIMEN FOR CANCER USING IMMUNOMODULATION” (BioXcel Therapeutics, Inc., priority 2020, published 2023).
Where a name gives a salt, the structure may show the parent alone.

How the values were obtained:
CYP1A2 [1] = target: T1, CYP1A2 (Homo sapiens, UniProt P05177); settings: human liver CYP isoenzymes, preclinical studies
T1 sequence (P05177 1-516): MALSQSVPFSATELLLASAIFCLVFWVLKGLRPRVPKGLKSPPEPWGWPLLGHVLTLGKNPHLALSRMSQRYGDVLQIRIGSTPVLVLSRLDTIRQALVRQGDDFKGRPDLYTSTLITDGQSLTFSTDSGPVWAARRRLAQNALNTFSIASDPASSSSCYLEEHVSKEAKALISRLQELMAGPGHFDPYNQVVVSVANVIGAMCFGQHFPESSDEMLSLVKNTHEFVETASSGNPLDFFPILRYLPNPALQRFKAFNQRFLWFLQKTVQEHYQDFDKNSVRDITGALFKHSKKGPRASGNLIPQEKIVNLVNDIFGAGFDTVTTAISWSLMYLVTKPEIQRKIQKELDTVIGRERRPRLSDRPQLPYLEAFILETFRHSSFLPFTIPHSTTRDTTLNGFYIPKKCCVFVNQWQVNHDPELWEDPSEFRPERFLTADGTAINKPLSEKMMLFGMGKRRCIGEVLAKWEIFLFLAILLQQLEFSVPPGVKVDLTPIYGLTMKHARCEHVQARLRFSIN

CYP2C8 = target: T2, CYP2C8 (Homo sapiens, UniProt P10632)
T2 sequence (P10632 1-490): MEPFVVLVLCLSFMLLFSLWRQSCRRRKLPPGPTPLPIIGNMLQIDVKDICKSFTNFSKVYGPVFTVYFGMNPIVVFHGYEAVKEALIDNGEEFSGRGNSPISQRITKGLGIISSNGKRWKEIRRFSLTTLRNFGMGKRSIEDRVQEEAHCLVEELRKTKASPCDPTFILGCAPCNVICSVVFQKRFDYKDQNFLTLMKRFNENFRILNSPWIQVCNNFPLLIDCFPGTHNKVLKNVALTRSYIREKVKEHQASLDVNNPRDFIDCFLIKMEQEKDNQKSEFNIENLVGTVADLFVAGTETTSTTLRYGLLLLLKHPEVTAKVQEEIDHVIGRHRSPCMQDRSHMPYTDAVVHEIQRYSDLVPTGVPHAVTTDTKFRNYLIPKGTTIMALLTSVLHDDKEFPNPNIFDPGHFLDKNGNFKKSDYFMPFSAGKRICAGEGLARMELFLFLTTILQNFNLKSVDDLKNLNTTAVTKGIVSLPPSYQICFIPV

CYP1A2 [2] = tested on: CYP1A2
CYP3A4 [3] = tested on: CYP3A4
CYP3A4 [4] = target: CYP3A4 (Homo sapiens, UniProt P08684)
CYP2C19 = CYP2C19 (Homo sapiens, UniProt P33261)
CYP2C9 = CYP2C9 (Homo sapiens, UniProt P11712)
CYP2D6 = CYP2D6 (Homo sapiens, UniProt P10635)
melanoma = melanoma patients

Sequence of CYP2C19 (P33261 whole entry): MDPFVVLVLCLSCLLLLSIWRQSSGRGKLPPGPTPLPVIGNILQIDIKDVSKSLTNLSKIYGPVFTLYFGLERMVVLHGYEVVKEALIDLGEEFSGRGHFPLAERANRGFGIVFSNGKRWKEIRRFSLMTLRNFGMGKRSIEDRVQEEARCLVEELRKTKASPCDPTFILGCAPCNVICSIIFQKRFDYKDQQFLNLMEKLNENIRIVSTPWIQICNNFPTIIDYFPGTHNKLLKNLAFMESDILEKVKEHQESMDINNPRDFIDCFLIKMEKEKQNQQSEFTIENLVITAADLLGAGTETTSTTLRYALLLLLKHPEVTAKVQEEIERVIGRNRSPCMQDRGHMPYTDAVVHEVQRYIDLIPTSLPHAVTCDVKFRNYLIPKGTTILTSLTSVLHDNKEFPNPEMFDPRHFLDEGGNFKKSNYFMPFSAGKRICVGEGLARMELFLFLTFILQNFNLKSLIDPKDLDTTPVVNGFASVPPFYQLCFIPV
Sequence of CYP2D6 (P10635 whole entry): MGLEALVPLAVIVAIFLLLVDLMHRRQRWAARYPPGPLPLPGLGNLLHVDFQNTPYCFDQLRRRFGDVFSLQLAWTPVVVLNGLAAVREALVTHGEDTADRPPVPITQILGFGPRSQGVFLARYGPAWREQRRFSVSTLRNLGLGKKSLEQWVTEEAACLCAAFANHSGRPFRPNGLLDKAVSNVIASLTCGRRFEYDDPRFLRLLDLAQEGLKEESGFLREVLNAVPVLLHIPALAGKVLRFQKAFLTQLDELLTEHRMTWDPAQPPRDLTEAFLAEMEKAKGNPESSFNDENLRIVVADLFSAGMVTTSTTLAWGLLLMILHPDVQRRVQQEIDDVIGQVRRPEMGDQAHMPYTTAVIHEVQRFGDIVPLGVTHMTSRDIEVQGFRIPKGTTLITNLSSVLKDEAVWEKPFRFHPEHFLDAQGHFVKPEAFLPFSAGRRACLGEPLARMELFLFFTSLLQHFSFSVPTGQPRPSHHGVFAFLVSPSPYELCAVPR
Sequence of CYP3A4 (Homo sapiens, UniProt P08684) (P08684 whole entry): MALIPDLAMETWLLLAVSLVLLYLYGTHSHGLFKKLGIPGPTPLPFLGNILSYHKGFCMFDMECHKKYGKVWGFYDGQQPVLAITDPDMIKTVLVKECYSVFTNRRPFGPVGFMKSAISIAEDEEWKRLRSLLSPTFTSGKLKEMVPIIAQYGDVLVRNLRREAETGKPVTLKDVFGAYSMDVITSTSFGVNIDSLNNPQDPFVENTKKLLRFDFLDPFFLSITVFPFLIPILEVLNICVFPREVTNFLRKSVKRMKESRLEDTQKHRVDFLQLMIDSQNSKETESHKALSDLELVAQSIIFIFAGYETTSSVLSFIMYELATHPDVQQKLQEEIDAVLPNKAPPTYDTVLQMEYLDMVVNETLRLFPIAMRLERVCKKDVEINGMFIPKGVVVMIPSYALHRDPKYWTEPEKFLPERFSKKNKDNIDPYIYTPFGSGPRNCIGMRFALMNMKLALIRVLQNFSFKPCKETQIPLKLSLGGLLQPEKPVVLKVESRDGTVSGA
Sequence of CYP2C9 (P11712 whole entry): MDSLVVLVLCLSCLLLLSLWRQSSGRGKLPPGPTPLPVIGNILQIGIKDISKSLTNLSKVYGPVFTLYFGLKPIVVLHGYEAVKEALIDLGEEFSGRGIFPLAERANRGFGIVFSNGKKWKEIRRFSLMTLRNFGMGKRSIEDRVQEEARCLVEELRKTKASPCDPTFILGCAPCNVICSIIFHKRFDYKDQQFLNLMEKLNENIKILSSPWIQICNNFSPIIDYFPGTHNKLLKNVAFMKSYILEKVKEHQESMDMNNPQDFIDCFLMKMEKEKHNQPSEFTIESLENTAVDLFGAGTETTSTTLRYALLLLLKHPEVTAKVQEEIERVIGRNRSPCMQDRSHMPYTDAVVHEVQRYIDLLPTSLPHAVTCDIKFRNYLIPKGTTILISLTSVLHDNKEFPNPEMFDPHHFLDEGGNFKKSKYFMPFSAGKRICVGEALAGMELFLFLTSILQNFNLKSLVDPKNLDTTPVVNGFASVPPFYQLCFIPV

Compound	Potential to inhibit CYP1A2 (CYP1A2 [1])	Potential to inhibit CYP2C8 (CYP2C8)	Induction of CYP1A2 (CYP1A2 [2])	Induction of CYP3A4 (CYP3A4 [3])	Potential to inhibit CYP3A4 (CYP3A4 [4])	Potential to inhibit CYP2C19 (CYP2C19)	Potential to inhibit CYP2C9 (CYP2C9)	Potential to inhibit CYP2D6 (CYP2D6)	Response rate (melanoma)
CC(C)[C@H](N)C(=O)N1CCC[C@H]1B(O)O [Talabostat mesylate, [(2R)-1-[(2S)-2-amino-3-methylbutanoyl]pyrrolidin-2-yl]boronic acid]	low potential	low potential	did not induce	did not induce	low potential	low potential	low potential	low potential	–
Nivolumab: PD-1 antagonist, immune checkpoint inhibitor antibody	–	–	–	–	–	–	–	–	32%
Ipilimumab: CTLA-4 antagonist, immune checkpoint inhibitor antibody	–	–	–	–	–	–	–	–	11%
